{"source": "ChEMBL document CHEMBL1201862", "about": "“PubChem BioAssay data set” (2004)", "key": {"[1]": {"biological_target": "Cystic fibrosis transmembrane conductance regulator/Golgi-associated PDZ and coiled-coil motif-containing protein (Homo sapiens, UniProt P13569+Q9HD26)", "test": "potency against CAL PDZ-peptide interaction – biochemical, fluorescence polarization, Cerulean-tagged CAL PDZ, cherry-picks, dose response (AID 504773)"}, "[2]": {"biological_target": "T1, Hexokinase HKDC1 (Homo sapiens, UniProt Q2TB90)", "T1 sequence (Q2TB90 whole entry)": "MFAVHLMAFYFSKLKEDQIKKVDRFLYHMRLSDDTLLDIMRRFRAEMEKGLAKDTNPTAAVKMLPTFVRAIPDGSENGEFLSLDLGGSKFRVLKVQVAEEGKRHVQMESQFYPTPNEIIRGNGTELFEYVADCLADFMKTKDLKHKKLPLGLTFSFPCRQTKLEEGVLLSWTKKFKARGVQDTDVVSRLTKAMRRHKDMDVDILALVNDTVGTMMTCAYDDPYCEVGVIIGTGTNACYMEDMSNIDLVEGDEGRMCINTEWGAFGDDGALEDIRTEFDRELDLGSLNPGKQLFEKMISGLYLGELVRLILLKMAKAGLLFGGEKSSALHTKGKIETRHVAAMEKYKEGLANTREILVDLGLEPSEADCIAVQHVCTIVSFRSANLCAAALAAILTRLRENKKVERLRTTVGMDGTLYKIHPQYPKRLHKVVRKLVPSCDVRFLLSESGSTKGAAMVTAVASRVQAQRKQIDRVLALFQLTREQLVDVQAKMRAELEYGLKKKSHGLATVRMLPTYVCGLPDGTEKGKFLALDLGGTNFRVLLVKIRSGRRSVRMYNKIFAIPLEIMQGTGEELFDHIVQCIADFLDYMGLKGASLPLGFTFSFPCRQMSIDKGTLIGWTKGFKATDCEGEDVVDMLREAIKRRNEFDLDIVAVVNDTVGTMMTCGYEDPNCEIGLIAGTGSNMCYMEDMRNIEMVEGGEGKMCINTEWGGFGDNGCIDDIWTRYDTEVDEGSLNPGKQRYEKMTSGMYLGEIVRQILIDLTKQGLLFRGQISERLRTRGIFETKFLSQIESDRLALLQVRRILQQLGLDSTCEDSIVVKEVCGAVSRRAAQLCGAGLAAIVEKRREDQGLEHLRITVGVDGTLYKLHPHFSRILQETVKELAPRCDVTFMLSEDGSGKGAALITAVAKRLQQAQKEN", "test": "analog inhibition of human HKDC1 activity – biochemical, set 2, SAR follow-up (AID 588355)", "format": "functional"}, "[3]": {"biological_target": "SUMO-activating enzyme (Homo sapiens, UniProt Q9UBT2)", "test": "blockers of UBC9-mediated SUMO conjugation – biochemical, AlphaScreen, SUMOylation inhibitor project, confirmation (AID 2018)", "format": "functional"}, "[4]": {"biological_target": "Serine/threonine-protein kinase BRSK1 (Homo sapiens, UniProt Q8TDC3)", "sequence (Q8TDC3 whole entry)": "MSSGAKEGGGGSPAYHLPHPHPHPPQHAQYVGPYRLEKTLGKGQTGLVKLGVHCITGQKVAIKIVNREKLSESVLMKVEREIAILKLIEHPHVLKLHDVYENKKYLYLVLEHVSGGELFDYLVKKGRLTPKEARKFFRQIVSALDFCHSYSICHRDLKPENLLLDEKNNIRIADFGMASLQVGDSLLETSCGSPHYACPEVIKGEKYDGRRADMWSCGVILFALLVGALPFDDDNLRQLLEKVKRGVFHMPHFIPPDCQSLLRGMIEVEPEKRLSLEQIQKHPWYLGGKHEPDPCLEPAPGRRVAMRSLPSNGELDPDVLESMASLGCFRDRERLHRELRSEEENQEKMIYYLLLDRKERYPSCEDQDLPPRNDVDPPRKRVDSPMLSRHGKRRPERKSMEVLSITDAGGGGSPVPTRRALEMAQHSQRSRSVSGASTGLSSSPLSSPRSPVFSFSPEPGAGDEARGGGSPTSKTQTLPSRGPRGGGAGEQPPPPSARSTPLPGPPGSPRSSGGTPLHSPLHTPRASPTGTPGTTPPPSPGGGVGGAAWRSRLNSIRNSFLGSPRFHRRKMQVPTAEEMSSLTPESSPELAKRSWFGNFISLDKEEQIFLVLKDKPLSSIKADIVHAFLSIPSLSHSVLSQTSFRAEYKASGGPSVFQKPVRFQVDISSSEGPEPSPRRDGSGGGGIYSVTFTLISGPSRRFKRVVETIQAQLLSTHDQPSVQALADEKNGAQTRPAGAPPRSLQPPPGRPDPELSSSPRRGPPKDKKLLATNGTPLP", "format": "functional"}, "[5]": {"biological_target": "Maternal embryonic leucine zipper kinase (Homo sapiens, UniProt Q14680)", "format": "functional"}, "[6]": {"biological_target": "Serine/threonine-protein kinase Nek4 (Homo sapiens, UniProt P51957)", "format": "functional"}, "[7]": {"biological_target": "Phosphorylase b kinase gamma catalytic chain, liver/testis isoform (Homo sapiens, UniProt P15735)", "format": "functional"}, "[8]": {"biological_target": "Dual specificity tyrosine-phosphorylation-regulated kinase 4 (Homo sapiens, UniProt Q9NR20)", "format": "functional"}, "[9]": {"biological_target": "Tyrosine-protein kinase receptor UFO (Homo sapiens, UniProt P30530)", "format": "functional"}, "[10]": {"biological_target": "Homeodomain-interacting protein kinase 4 (Homo sapiens, UniProt Q8NE63)", "format": "functional"}, "[11]": {"biological_target": "Tyrosine-protein kinase receptor TYRO3 (Homo sapiens, UniProt Q06418)", "format": "functional"}, "[12]": {"biological_target": "Tyrosine-protein kinase Fer (Homo sapiens, UniProt P16591)", "sequence (P16591 whole entry)": "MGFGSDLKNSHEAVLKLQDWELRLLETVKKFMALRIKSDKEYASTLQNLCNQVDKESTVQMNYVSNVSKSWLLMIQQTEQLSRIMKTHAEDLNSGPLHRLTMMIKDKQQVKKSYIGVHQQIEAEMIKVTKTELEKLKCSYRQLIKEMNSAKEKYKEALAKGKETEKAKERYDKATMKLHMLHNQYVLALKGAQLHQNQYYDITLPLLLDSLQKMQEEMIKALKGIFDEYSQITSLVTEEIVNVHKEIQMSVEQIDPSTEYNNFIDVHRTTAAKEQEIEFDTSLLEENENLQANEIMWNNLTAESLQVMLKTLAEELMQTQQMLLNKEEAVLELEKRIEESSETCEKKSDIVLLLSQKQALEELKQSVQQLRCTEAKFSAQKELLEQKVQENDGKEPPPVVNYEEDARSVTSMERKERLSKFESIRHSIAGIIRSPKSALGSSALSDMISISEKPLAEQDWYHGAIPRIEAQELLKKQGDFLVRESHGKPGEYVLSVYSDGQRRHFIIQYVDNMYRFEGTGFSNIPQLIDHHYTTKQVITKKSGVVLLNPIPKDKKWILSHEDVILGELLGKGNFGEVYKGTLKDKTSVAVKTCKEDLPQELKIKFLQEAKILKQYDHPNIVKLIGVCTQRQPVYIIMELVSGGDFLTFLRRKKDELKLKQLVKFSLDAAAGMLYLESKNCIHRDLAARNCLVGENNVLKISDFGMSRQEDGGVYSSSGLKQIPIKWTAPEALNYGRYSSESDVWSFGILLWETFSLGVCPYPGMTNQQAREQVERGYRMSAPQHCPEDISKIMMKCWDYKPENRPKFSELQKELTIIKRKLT", "format": "functional"}, "[13]": {"biological_target": "Protein-tyrosine kinase 2-beta (Homo sapiens, UniProt Q14289)", "format": "functional"}, "[14]": {"biological_target": "Tyrosine-protein kinase BTK (Homo sapiens, UniProt Q06187)", "format": "functional"}, "[15]": {"biological_target": "Cyclin-dependent kinase 8 (Homo sapiens, UniProt P49336)", "test": "Navigating the Kinome. Panel member name: CDK8", "format": "functional"}, "[16]": {"biological_target": "cGMP-dependent protein kinase 1 (Homo sapiens, UniProt Q13976)", "sequence (Q13976 whole entry)": "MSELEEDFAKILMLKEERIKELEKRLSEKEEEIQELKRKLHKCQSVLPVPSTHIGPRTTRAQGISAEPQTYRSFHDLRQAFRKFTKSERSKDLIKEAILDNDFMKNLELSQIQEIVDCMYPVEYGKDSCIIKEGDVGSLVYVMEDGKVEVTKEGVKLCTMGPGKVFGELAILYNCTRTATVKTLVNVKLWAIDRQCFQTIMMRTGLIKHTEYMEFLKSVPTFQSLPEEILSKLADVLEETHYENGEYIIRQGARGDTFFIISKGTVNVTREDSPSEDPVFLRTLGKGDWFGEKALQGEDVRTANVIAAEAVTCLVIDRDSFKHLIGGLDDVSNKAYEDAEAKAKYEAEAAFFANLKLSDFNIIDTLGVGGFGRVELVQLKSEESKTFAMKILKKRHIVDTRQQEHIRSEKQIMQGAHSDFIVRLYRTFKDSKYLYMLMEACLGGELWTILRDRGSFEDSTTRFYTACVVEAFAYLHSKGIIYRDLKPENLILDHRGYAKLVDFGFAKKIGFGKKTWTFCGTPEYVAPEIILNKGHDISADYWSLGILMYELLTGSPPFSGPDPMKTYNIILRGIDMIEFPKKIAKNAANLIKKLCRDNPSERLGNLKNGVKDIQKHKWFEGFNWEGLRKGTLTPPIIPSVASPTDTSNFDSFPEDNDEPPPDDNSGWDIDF", "format": "functional"}, "[17]": {"biological_target": "Serine/threonine-protein kinase 17A (Homo sapiens, UniProt Q9UEE5)", "format": "functional"}, "[18]": {"biological_target": "Focal adhesion kinase 1 (Homo sapiens, UniProt Q05397)", "sequence (Q05397 whole entry)": "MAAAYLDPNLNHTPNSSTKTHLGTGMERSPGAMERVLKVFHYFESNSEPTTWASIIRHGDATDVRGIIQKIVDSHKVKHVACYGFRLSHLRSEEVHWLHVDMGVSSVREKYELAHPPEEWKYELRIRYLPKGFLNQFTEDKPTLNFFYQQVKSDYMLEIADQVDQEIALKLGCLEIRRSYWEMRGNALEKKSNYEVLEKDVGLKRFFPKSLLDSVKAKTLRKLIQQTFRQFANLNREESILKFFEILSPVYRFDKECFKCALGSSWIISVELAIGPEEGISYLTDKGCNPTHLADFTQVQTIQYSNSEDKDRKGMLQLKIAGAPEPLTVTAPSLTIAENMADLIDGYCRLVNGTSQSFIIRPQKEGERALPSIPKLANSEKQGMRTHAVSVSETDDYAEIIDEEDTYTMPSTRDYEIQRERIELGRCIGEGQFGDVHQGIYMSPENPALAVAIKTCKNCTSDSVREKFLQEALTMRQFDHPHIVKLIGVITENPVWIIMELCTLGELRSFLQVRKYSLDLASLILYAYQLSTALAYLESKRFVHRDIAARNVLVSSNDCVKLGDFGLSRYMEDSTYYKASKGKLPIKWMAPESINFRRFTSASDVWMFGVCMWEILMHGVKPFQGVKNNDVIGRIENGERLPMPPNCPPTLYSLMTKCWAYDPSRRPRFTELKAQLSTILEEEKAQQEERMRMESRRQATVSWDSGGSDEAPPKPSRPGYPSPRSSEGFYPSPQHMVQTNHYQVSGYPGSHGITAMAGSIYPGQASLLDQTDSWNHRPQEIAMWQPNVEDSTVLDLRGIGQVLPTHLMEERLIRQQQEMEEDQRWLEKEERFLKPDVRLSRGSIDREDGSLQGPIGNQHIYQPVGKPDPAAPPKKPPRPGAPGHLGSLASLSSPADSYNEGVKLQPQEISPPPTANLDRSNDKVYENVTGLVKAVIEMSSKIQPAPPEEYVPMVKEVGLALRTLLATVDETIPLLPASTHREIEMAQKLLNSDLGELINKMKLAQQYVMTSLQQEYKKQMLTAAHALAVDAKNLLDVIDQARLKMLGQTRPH", "format": "functional"}, "[19]": {"biological_target": "MAP kinase-interacting serine/threonine-protein kinase 2 (Homo sapiens, UniProt Q9HBH9)", "sequence (Q9HBH9 whole entry)": "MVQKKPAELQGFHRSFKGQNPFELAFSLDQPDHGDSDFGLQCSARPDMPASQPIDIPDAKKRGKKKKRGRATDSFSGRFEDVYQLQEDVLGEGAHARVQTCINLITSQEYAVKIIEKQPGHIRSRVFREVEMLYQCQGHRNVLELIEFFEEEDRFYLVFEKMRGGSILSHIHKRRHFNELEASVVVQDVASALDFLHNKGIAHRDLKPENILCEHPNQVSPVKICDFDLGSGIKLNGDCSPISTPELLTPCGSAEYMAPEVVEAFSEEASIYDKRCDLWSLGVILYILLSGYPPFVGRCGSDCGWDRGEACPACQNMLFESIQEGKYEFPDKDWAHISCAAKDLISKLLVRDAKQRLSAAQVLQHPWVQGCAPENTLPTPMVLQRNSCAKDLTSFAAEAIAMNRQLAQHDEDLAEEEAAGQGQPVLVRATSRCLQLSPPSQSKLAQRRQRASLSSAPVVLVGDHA", "format": "functional"}, "[20]": {"biological_target": "STE20-like serine/threonine-protein kinase (Homo sapiens, UniProt Q9H2G2)", "format": "functional"}, "[21]": {"biological_target": "Testis-specific serine/threonine-protein kinase 1 (Homo sapiens, UniProt Q9BXA7)", "sequence (Q9BXA7 whole entry)": "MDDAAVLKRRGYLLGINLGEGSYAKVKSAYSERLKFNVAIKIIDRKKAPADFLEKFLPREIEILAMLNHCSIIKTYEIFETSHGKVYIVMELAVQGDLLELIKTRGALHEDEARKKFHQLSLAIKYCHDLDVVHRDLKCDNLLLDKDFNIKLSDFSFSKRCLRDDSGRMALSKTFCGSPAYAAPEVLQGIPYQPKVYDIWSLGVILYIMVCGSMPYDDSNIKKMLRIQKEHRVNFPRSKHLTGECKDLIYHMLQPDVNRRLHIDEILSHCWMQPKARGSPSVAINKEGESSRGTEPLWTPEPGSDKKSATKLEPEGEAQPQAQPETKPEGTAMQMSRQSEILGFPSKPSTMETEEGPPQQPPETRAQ", "format": "functional"}, "[22]": {"biological_target": "Dual specificity tyrosine-phosphorylation-regulated kinase 1A (Homo sapiens, UniProt Q13627)", "format": "functional"}, "[23]": {"biological_target": "Inhibitor of nuclear factor kappa-B kinase subunit beta (Homo sapiens, UniProt O14920)", "format": "functional"}, "[24]": {"biological_target": "cAMP-dependent protein kinase catalytic subunit alpha (Homo sapiens, UniProt P17612)", "format": "functional"}, "[25]": {"biological_target": "Serine/threonine-protein kinase MRCK alpha (Homo sapiens, UniProt Q5VT25)", "format": "functional"}, "[26]": {"biological_target": "RAC-alpha serine/threonine-protein kinase (Homo sapiens, UniProt P31749)", "format": "functional"}, "[27]": {"biological_target": "Inhibitor of nuclear factor kappa-B kinase subunit alpha (Homo sapiens, UniProt O15111)", "format": "functional"}, "[28]": {"biological_target": "RAC-gamma serine/threonine-protein kinase (Homo sapiens, UniProt Q9Y243)", "format": "functional"}, "[29]": {"biological_target": "Protein kinase C zeta type (Homo sapiens, UniProt Q05513)", "sequence (Q05513 whole entry)": "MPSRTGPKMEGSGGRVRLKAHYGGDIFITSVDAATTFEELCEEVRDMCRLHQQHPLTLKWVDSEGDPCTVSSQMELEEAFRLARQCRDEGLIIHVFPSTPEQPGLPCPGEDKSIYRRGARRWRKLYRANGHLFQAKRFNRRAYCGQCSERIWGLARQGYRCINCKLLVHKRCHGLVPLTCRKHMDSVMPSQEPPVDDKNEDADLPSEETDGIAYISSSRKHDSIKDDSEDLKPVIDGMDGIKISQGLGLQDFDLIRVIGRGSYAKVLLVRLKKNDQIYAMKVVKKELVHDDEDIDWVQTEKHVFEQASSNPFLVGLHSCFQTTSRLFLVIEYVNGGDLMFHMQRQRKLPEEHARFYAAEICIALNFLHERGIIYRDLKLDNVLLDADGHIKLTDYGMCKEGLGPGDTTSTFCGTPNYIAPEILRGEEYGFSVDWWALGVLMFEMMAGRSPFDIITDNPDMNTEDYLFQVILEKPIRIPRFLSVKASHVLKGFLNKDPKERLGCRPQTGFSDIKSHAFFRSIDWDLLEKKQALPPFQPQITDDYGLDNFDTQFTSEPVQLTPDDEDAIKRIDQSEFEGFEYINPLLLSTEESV", "format": "functional"}}, "note": "The source made the active and inactive calls."}
{"compound": "CC(=O)NC1C(=O)N(CCN2CCOCC2)c2ccc(Cl)cc21", "note": "(centres undefined)", "values": [{"measurement": "AC50", "setting": "[1]", "result": "26.8 µM (active)"}, {"measurement": "IC50", "setting": "[2]", "result": "11.5 µM (active)"}, {"measurement": "IC50", "setting": "[3]", "result": "5.25 µM (active)"}]}
{"compound": "Cc1n[nH]c2cnc(-c3cncc(OCC(N)Cc4cccc(C(F)(F)F)c4)c3)cc12", "note": "(centres undefined)", "values": [{"measurement": "Ki", "setting": "[4]", "result": "2 µM (active)"}, {"measurement": "Ki", "setting": "[5]", "result": "15.8 nM (active)"}, {"measurement": "Ki", "setting": "[6]", "result": "316 nM (active)"}, {"measurement": "Ki", "setting": "[7]", "result": "2.51 µM (active)"}, {"measurement": "Ki", "setting": "[8]", "result": "126 nM (active)"}, {"measurement": "Ki", "setting": "[9]", "result": "> 2 µM (inactive)"}, {"measurement": "Ki", "setting": "[10]", "result": "25.1 nM (active)"}, {"measurement": "Ki", "setting": "[11]", "result": "2 µM (active)"}, {"measurement": "Ki", "setting": "[12]", "result": "> 1.58 µM (inactive)"}, {"measurement": "Ki", "setting": "[13]", "result": "1.58 µM (active)"}, {"measurement": "Ki", "setting": "[14]", "result": "> 1.26 µM (inactive)"}, {"measurement": "Ki", "setting": "[15]", "result": "12.6 nM (active)"}, {"measurement": "Ki", "setting": "[16]", "result": "15.8 nM (active)"}, {"measurement": "Ki", "setting": "[17]", "result": "501 nM (active)"}, {"measurement": "Ki", "setting": "[18]", "result": "> 1.58 µM (inactive)"}, {"measurement": "Ki", "setting": "[19]", "result": "631 nM (active)"}, {"measurement": "Ki", "setting": "[20]", "result": "200 nM (active)"}, {"measurement": "Ki", "setting": "[21]", "result": "31.6 nM (active)"}]}
{"compound": "Cc1c(C=O)c(O)n2c(nc3ccccc32)c1C#N", "values": [{"measurement": "Ki", "setting": "[22]", "result": "501 nM (active)"}, {"measurement": "Ki", "setting": "[23]", "result": "> 3.16 µM (inactive)"}, {"measurement": "Ki", "setting": "[24]", "result": "> 7.94 µM (inactive)"}, {"measurement": "Ki", "setting": "[25]", "result": "> 10 µM (inactive)"}, {"measurement": "Ki", "setting": "[26]", "result": "> 7.94 µM (inactive)"}, {"measurement": "Ki", "setting": "[27]", "result": "> 3.98 µM (inactive)"}, {"measurement": "Ki", "setting": "[28]", "result": "> 10 µM (inactive)"}, {"measurement": "Ki", "setting": "[29]", "result": "> 7.94 µM (inactive)"}]}
